# Legend:
# Format in all cases: cell-based, human
# TMPRSS2 mRNA = experiment: TMPRSS2 expression in C4-2 cells; conditions: 48 hrs; for Percent inhibition of TMPRSS2 expression: C4-2 cells, CSS + DHT medium
# Description: Cells were plated at 1,000 cells per well. […] After an incubation period of 48 hrs, RNA levels of AR, PSA and TMPRSS2 were measured.
# Cells were plated at 2,000 cells per well and cultured in CSS media with 1 nM DHT. […] After an incubation period of 48 hrs, RNA levels of AR, PSA and TMPRSS2 were measured.
# VCaP cells = experiment: VCaP apoptosis (Caspase-Glo 3/7); conditions: VCaP cells, complete medium, 72 hours
# Description: After a treatment period of 72 hours in complete medium, apoptosis of the cancer cells was measured with Caspase-Glo 3/7 assay (Promega). Results are presented in Tables 117 and 118 as percent apoptosis of the cells, relative to non-treated cells.
# AR mRNA [1] = experiment: Time-course AR mRNA expression in C4-2B cells (8, 24, 48 hours); conditions: C4-2B cells
# Description: C4-2B cells were plated at 1,000 cells per well in complete medium. […] After a treatment period of 8 hours, 24 hours, and 48 hours, AR expression was measured with primer probe set hAR-LTS00943.
# AR mRNA [2] = experiment: AR RNA expression in C4-2B cells (complete, CSS+DHT medium; Example 30); conditions: 48 hrs
# Description: Cells were plated at 1,000 cells per well. […] ISIS 549148 was included as a negative control. […] After an incubation period of 48 hrs, RNA levels of AR, PSA and TMPRSS2 were measured.
# Cells were plated at 2,000 cells per well and cultured in CSS media with 1 nM DHT. […] ISIS 549148 was included as a negative control. […] After an incubation period of 48 hrs, RNA levels of AR, PSA and TMPRSS2 were measured. In the absence of DHT, AR expression in C4-2 cells was 188%, PSA expression was 43% and TMPRSS2 expression was 27% compared to the untreated control.
# PSA mRNA = experiment: PSA expression in VCaP cells; conditions: RNAiMax, 48 hrs
# Description: Cells were plated at 10,000 cells per well. […] After an incubation period of 48 hrs, RNA levels of full length AR, the V7 variant, PSA and TMPRSS2 were measured.
# (§1) After an incubation period of 48 hrs, RNA levels of full length AR, the V7 variant, PSA and TMPRSS2 were measured. The data is presented in Tables 108 expressed as percent expression of gene levels compared to the untreated control.
# Cells were plated at 15,000 cells per well and cultured in CSS media for 16 hours. […] After 4 hrs, 1 nM DHT was added. […] After an incubation period of 48 hrs, RNA levels of AR, PSA and TMPRSS2 were measured.
# AR V7 variant mRNA [3] = experiment: AR V7 variant RNA in VCaP cells; conditions: RNAiMax, 48 hrs
# Description: Cells were plated at 10,000 cells per well. […] ISIS 549148 was included as a negative control. After an incubation period of 48 hrs, RNA levels of full length AR, the V7 variant, PSA and TMPRSS2 were measured.
# as §1, with “A separate set of cells was treated with MDV-3100 at 0.04 μM, 0.2 μM, 1.0 μM, or 5.0 μM. After” for “After”
# Cells were plated at 15,000 cells per well and cultured in CSS media for 16 hours. […] ISIS 549148 was included as a negative control. After 4 hrs, 1 nM DHT was added. […] After an incubation period of 48 hrs, RNA levels of AR, PSA and TMPRSS2 were measured. […]
# AR V7 variant mRNA [4] = experiment: AR V7 variant RNA in 22RV1 cells; conditions: RNAiMax, 48 hrs
sequence,measurement,setting,value
"GGCTACTACGCCGTCA (3-10-3 (S)-cEt gapmer, chemistry not fully specified) [ISIS 549148, reference compound]",Percent inhibition of TMPRSS2 expression,TMPRSS2 mRNA; 0.04 μM,3%
same,Percent inhibition of TMPRSS2 expression,TMPRSS2 mRNA; 0.2 μM,0%
same,Percent inhibition of TMPRSS2 expression,TMPRSS2 mRNA; 1 μM,22%
same,Percent inhibition of TMPRSS2 expression,TMPRSS2 mRNA; 5.0 μM,28%
same,Percent inhibition of TMPRSS2 expression in C4-2 cells cultured in complete medium,TMPRSS2 mRNA; 0.04 μM,2%
same,Percent inhibition of TMPRSS2 expression in C4-2 cells cultured in complete medium,TMPRSS2 mRNA; 0.2 μM,7%
same,Percent inhibition of TMPRSS2 expression in C4-2 cells cultured in complete medium,TMPRSS2 mRNA; 1 μM,10%
same,Percent inhibition of TMPRSS2 expression in C4-2 cells cultured in complete medium,TMPRSS2 mRNA; 5.0 μM,0%
same,Apoptosis (% untreated control),VCaP cells; 1.34 nM,131 % untreated control
same,Apoptosis (% untreated control),VCaP cells; 4.0 nM,108 % untreated control
same,Apoptosis (% untreated control),VCaP cells; 13.4 nM,103 % untreated control
same,Apoptosis (% untreated control),VCaP cells; 40 nM,146 % untreated control
same,Percent expression of AR compared to the control group in 8 hours,AR mRNA [1]; 0.04 μM,116%
same,Percent expression of AR compared to the control group in 24 hours,AR mRNA [1]; 0.04 μM,87%
same,Percent expression of AR compared to the control group in 48 hours,AR mRNA [1]; 0.04 μM,98%
same,Percent expression of AR compared to the control group in 8 hours,AR mRNA [1]; 0.2 μM,105%
same,Percent expression of AR compared to the control group in 24 hours,AR mRNA [1]; 0.2 μM,85%
same,Percent expression of AR compared to the control group in 48 hours,AR mRNA [1]; 0.2 μM,90%
same,Percent expression of AR compared to the control group in 24 hours,AR mRNA [1]; 1 μM,87%
same,Percent expression of AR compared to the control group in 48 hours,AR mRNA [1]; 1 μM,87%
same,Percent expression of AR compared to the control group in 8 hours,AR mRNA [1]; 5.0 μM,110%
same,Percent expression of AR compared to the control group in 24 hours,AR mRNA [1]; 5.0 μM,107%
same,Percent expression of AR compared to the control group in 48 hours,AR mRNA [1]; 5.0 μM,99%
same,Percent expression of AR,"AR mRNA [2]; CSS + DHT medium, 0.04 μM",91%
same,Percent expression of AR,"AR mRNA [2]; CSS + DHT medium, 0.2 μM",104%
same,Percent expression of AR,"AR mRNA [2]; CSS + DHT medium, 1 μM",101%
same,Percent expression of AR,"AR mRNA [2]; CSS + DHT medium, 5.0 μM",95%
same,Percent expression of AR,"AR mRNA [2]; complete medium, 0.04 μM",101%
same,Percent expression of AR,"AR mRNA [2]; complete medium, 0.2 μM",91%
same,Percent expression of AR,"AR mRNA [2]; complete medium, 1 μM",88%
same,Percent expression of AR,"AR mRNA [2]; complete medium, 5.0 μM",87%
same,Percent inhibition of PSA expression,"PSA mRNA; CSS + DHT medium, 1.34 nM",0%
same,Percent inhibition of PSA expression,"PSA mRNA; CSS + DHT medium, 4.0 nM",3%
same,Percent inhibition of PSA expression,"PSA mRNA; CSS + DHT medium, 13.4 nM",9%
same,Percent inhibition of PSA expression,"PSA mRNA; CSS + DHT medium, 40 nM",0%
same,Percent inhibition of PSA expression,"PSA mRNA; complete medium, 1.34 nM",2%
same,Percent inhibition of PSA expression,"PSA mRNA; complete medium, 4.0 nM",0%
same,Percent inhibition of PSA expression,"PSA mRNA; complete medium, 13.4 nM",0%
same,Percent inhibition of PSA expression,"PSA mRNA; complete medium, 40 nM",20%
same,Percent inhibition of AR V7 variant,"AR V7 variant mRNA [3]; CSS + DHT medium, 1.34 nM",12%
same,Percent inhibition of AR V7 variant,"AR V7 variant mRNA [3]; CSS + DHT medium, 4.0 nM",0%
same,Percent inhibition of AR V7 variant,"AR V7 variant mRNA [3]; CSS + DHT medium, 13.4 nM",0%
same,Percent inhibition of AR V7 variant,"AR V7 variant mRNA [3]; CSS + DHT medium, 40 nM",5%
same,Percent inhibition of AR V7 variant,"AR V7 variant mRNA [3]; complete medium, 1.34 nM",0%
same,Percent inhibition of AR V7 variant,"AR V7 variant mRNA [3]; complete medium, 4.0 nM",8%
same,Percent inhibition of AR V7 variant,"AR V7 variant mRNA [3]; complete medium, 13.4 nM",0%
same,Percent inhibition of AR V7 variant,"AR V7 variant mRNA [3]; complete medium, 40 nM",14%
same,Percent inhibition of AR V7 variant,"AR V7 variant mRNA [4]; CSS + DHT medium, 1.34 nM",19%
same,Percent inhibition of AR V7 variant,"AR V7 variant mRNA [4]; CSS + DHT medium, 4.0 nM",19%
same,Percent inhibition of AR V7 variant,"AR V7 variant mRNA [4]; CSS + DHT medium, 13.4 nM",32%
same,Percent inhibition of AR V7 variant,"AR V7 variant mRNA [4]; complete medium, 1.34 nM",0%
same,Percent inhibition of AR V7 variant,"AR V7 variant mRNA [4]; complete medium, 4.0 nM",0%
same,Percent inhibition of AR V7 variant,"AR V7 variant mRNA [4]; complete medium, 13.4 nM",22%
same,Percent inhibition of AR V7 variant,"AR V7 variant mRNA [4]; complete medium, 40 nM",26%

# Reference: patent USRE48461E1, “Modulation of androgen receptor expression” (Ionis Pharmaceuticals, Inc., priority 2012, dated 2021)
